Test results as given in PubChem BioAssay (NCI).
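In this assay, cells in 96-well plates receive the compound at five concentrations for 48 hours. Endpoints are linearly interpolated between the surrounding concentrations. At the GI50, growth is halved. TGI is the concentration that stops growth completely.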

Columns and labels:
Assay in all cases: inhibition of tumour cell growth, NCI panel, 48 h
[1] = tested on: HS 578T breast
[2] = tested on: SF-295 CNS
[3] = tested on: OVCAR-5 ovarian
[4] = tested on: 786-0 renal
[5] = tested on: ACHN renal
[6] = tested on: HCT-15 colon
[7] = tested on: OVCAR-3 ovarian
[8] = tested on: K-562 leukemia
[9] = tested on: KM12 colon
[10] = tested on: U251 CNS
[11] = tested on: SF-268 CNS
[12] = tested on: SN12C renal
[13] = tested on: UACC-62 melanoma
[14] = tested on: SR leukemia
[15] = tested on: UO-31 renal
[16] = tested on: OVCAR-4 ovarian
[17] = tested on: NCI/ADR-RES ovarian
[18] = tested on: HL-60(TB) leukemia
[19] = tested on: NCI-H23 lung
[20] = tested on: NCI-H460 lung
[21] = tested on: MDA-MB-231 breast
[22] = tested on: SW-620 colon
[23] = tested on: CCRF-CEM leukemia
[24] = tested on: NCI-H522 lung
[25] = tested on: MALME-3M melanoma
[26] = tested on: OVCAR-8 ovarian
[27] = tested on: TK-10 renal

SMILES: COc1cc(-c2cc(-c3nc4ccc(F)cc4[nH]3)[nH]n2)cc(OC)c1OC
- GI50 [1]: 3.32 µM
- TGI [1]: > 100 µM
- GI50 [2]: 2.51 µM
- TGI [2]: 9.67 µM
- GI50 [3]: 11.1 µM
- TGI [3]: 24 µM
- GI50 [4]: 3.97 µM
- TGI [4]: 14.6 µM
- GI50 [5]: 2.54 µM
- TGI [5]: 11.6 µM
- GI50 [6]: 2.79 µM
- TGI [6]: 10.8 µM
- GI50 [7]: 2.95 µM
- TGI [7]: 10 µM
- GI50 [8]: 2.87 µM
- TGI [8]: 32.7 µM
- GI50 [9]: 2.29 µM
- TGI [9]: 6.23 µM
- GI50 [10]: 2.61 µM
- TGI [10]: 12 µM
- GI50 [11]: 3.23 µM
- TGI [11]: 11.2 µM
- GI50 [12]: 2.92 µM
- TGI [12]: 12.9 µM
- GI50 [13]: 1.8 µM
- TGI [13]: 4.82 µM
- GI50 [14]: 3.45 µM
- TGI [14]: 32 µM
- GI50 [15]: 1.74 µM
- TGI [15]: 6.97 µM
- GI50 [16]: 1.29 µM
- TGI [16]: 4.27 µM
- GI50 [17]: 3.19 µM
- TGI [17]: 9.2 µM
- GI50 [18]: 2.52 µM
- TGI [18]: 7.71 µM
- GI50 [19]: 2.35 µM
- TGI [19]: 6.89 µM
- GI50 [20]: 2.9 µM
- TGI [20]: 11.8 µM
- GI50 [21]: 3.05 µM
- TGI [21]: 15.2 µM
- GI50 [22]: 4.11 µM
- TGI [22]: 20.5 µM
- GI50 [23]: 1.98 µM
- TGI [23]: 5.74 µM
- GI50 [24]: 1.73 µM
- TGI [24]: 5.15 µM
- GI50 [25]: 1.96 µM
- TGI [25]: 8.44 µM
- GI50 [26]: 1.99 µM
- TGI [26]: 5.03 µM
- GI50 [27]: 4.39 µM
- TGI [27]: 16 µM
